The supplement of paper PMC10307832

How the values were obtained:
Assay in all cases: relative viability (nuclei count vs DMSO), 5 days (fraction); higher = more cells survive
201T = test system: 201T
Method in brief: (§1)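 Each reported value is a median over duplicate plates. It expresses relative viability: treated-well nuclei count divided by vehicle-well nuclei count. Lung cancer cell lines in 1536-well plates were dosed by pin tool a day after seeding, alone with one drug or with a fixed anchor-drug dose plus five library-drug doses (not always all listed) in √10 steps, and nuclei were counted after 5 days.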

NCI-H520 = test system: NCI-H520
Method in brief: as §1

LOU-NH91 = test system: LOU-NH91
Method in brief: as §1

NCI-H647 = test system: NCI-H647
Method in brief: as §1

NCI-H322M = test system: NCI-H322M
Method in brief: as §1

NCI-H1563 = test system: NCI-H1563
Method in brief: as §1

EPLC-272H = test system: EPLC-272H
Method in brief: as §1

NCI-H2170 = test system: NCI-H2170
Method in brief: as §1

PC-14 = test system: PC-14
Method in brief: as §1

NCI-H3122 = test system: NCI-H3122
Method in brief: as §1

H3255 = test system: H3255
Method in brief: as §1

UMC-11 = test system: UMC-11
Method in brief: as §1

COR-L23 = test system: COR-L23
Method in brief: as §1

HCC-15 = test system: HCC-15
Method in brief: as §1

NCI-H2405 = test system: NCI-H2405
Method in brief: as §1

NCI-H2023 = test system: NCI-H2023
Method in brief: as §1

NCI-H2347 = test system: NCI-H2347
Method in brief: as §1

NCI-H1734 = test system: NCI-H1734
Method in brief: as §1

NCI-H1793 = test system: NCI-H1793
Method in brief: as §1

NCI-H1650 = test system: NCI-H1650
Method in brief: as §1

CCN(CC)CCCCNc1ncc2cc(-c3cc(OC)cc(OC)c3)c(NC(=O)NC(C)(C)C)nc2n1 + CS(=O)(=O)CCNCc1ccc(-c2ccc3ncnc(Nc4ccc(OCc5cccc(F)c5)c(Cl)c4)c3c2)o1 [Lapatinib] (partner 2 µM)
relative viability (201T; first compound 0.01 µM): 1.03 | relative viability (201T; first compound 0.03162 µM): 1.04 | relative viability (201T; first compound 0.1 µM): 1.12 | relative viability (201T; first compound 0.3162 µM): 1.08 | relative viability (201T; first compound 1 µM): 0.884 | relative viability (NCI-H520; first compound 0.01 µM): 1.07 | relative viability (NCI-H520; first compound 0.03162 µM): 0.946 | relative viability (NCI-H520; first compound 0.1 µM): 1.11 | relative viability (NCI-H520; first compound 0.3162 µM): 0.792 | relative viability (NCI-H520; first compound 1 µM): 0.308 | relative viability (LOU-NH91; first compound 0.01 µM): 0.664 | relative viability (LOU-NH91; first compound 0.03162 µM): 0.746 | relative viability (LOU-NH91; first compound 0.1 µM): 0.824 | relative viability (LOU-NH91; first compound 0.3162 µM): 0.885 | relative viability (LOU-NH91; first compound 1 µM): 0.737 | relative viability (NCI-H647; first compound 0.01 µM): 1.22 | relative viability (NCI-H647; first compound 0.03162 µM): 1.25 | relative viability (NCI-H647; first compound 0.1 µM): 1.28 | relative viability (NCI-H647; first compound 0.3162 µM): 1.48 | relative viability (NCI-H647; first compound 1 µM): 0.493 | relative viability (NCI-H322M; first compound 0.01 µM): 0.549 | relative viability (NCI-H322M; first compound 0.03162 µM): 0.584 | relative viability (NCI-H322M; first compound 0.1 µM): 0.598 | relative viability (NCI-H322M; first compound 0.3162 µM): 0.619 | relative viability (NCI-H322M; first compound 1 µM): 0.528 | relative viability (NCI-H1563; first compound 0.01 µM): 0.884 | relative viability (NCI-H1563; first compound 0.03162 µM): 0.895 | relative viability (NCI-H1563; first compound 0.1 µM): 0.849 | relative viability (NCI-H1563; first compound 0.3162 µM): 0.792 | relative viability (NCI-H1563; first compound 1 µM): 0.621 | relative viability (EPLC-272H; first compound 0.01 µM): 1.05 | relative viability (EPLC-272H; first compound 0.1 µM): 0.956 | relative viability (EPLC-272H; first compound 0.3162 µM): 0.922 | relative viability (EPLC-272H; first compound 1 µM): 0.642 | relative viability (NCI-H2170; first compound 0.01 µM): 0.282 | relative viability (NCI-H2170; first compound 0.03162 µM): 0.269 | relative viability (NCI-H2170; first compound 0.1 µM): 0.298 | relative viability (NCI-H2170; first compound 0.3162 µM): 0.271 | relative viability (NCI-H2170; first compound 1 µM): 0.276 | relative viability (PC-14; first compound 0.01 µM): 0.318 | relative viability (PC-14; first compound 0.03162 µM): 0.373 | relative viability (PC-14; first compound 0.1 µM): 0.391 | relative viability (PC-14; first compound 0.3162 µM): 0.362 | relative viability (PC-14; first compound 1 µM): 0.237 | relative viability (NCI-H3122; first compound 0.01 µM): 0.997 | relative viability (NCI-H3122; first compound 0.03162 µM): 1.04 | relative viability (NCI-H3122; first compound 0.1 µM): 1.16 | relative viability (NCI-H3122; first compound 0.3162 µM): 1.07 | relative viability (NCI-H3122; first compound 1 µM): 1 | relative viability (H3255; first compound 0.01 µM): 0.26 | relative viability (H3255; first compound 0.03162 µM): 0.235 | relative viability (H3255; first compound 0.1 µM): 0.25 | relative viability (H3255; first compound 0.3162 µM): 0.258 | relative viability (H3255; first compound 1 µM): 0.227 | relative viability (UMC-11; first compound 0.01 µM): 1.18 | relative viability (UMC-11; first compound 0.03162 µM): 1.04 | relative viability (UMC-11; first compound 0.1 µM): 1.1 | relative viability (UMC-11; first compound 0.3162 µM): 1.11 | relative viability (UMC-11; first compound 1 µM): 0.94 | relative viability (COR-L23; first compound 0.01 µM): 1.09 | relative viability (COR-L23; first compound 0.03162 µM): 0.973 | relative viability (COR-L23; first compound 0.1 µM): 0.943 | relative viability (COR-L23; first compound 0.3162 µM): 1.19 | relative viability (COR-L23; first compound 1 µM): 0.881 | relative viability (HCC-15; first compound 0.01 µM): 0.871 | relative viability (HCC-15; first compound 0.03162 µM): 0.944 | relative viability (HCC-15; first compound 0.1 µM): 0.83 | relative viability (HCC-15; first compound 0.3162 µM): 1.07 | relative viability (HCC-15; first compound 1 µM): 0.779 | relative viability (NCI-H2405; first compound 0.01 µM): 0.926 | relative viability (NCI-H2405; first compound 0.03162 µM): 1.05 | relative viability (NCI-H2405; first compound 0.1 µM): 1.16 | relative viability (NCI-H2405; first compound 0.3162 µM): 1.28 | relative viability (NCI-H2405; first compound 1 µM): 1.04 | relative viability (NCI-H2023; first compound 0.01 µM): 0.748 | relative viability (NCI-H2023; first compound 0.03162 µM): 0.94 | relative viability (NCI-H2023; first compound 0.1 µM): 1.17 | relative viability (NCI-H2023; first compound 0.3162 µM): 0.919 | relative viability (NCI-H2023; first compound 1 µM): 0.798 | relative viability (NCI-H2347; first compound 0.01 µM): 0.923 | relative viability (NCI-H2347; first compound 0.03162 µM): 0.79 | relative viability (NCI-H2347; first compound 0.1 µM): 1.06 | relative viability (NCI-H2347; first compound 0.3162 µM): 0.878 | relative viability (NCI-H2347; first compound 1 µM): 0.931 | relative viability (NCI-H1734; first compound 0.01 µM): 1.06 | relative viability (NCI-H1734; first compound 0.03162 µM): 1.2 | relative viability (NCI-H1734; first compound 0.1 µM): 1.39 | relative viability (NCI-H1734; first compound 0.3162 µM): 1.13 | relative viability (NCI-H1734; first compound 1 µM): 1.02 | relative viability (NCI-H1793; first compound 0.01 µM): 0.623 | relative viability (NCI-H1793; first compound 0.1 µM): 1.03 | relative viability (NCI-H1793; first compound 0.3162 µM): 0.562 | relative viability (NCI-H1793; first compound 1 µM): 0.367 | relative viability (NCI-H1650; first compound 0.01 µM): 0.714 | relative viability (NCI-H1650; first compound 0.03162 µM): 0.733 | relative viability (NCI-H1650; first compound 0.1 µM): 0.614 | relative viability (NCI-H1650; first compound 0.3162 µM): 0.35 | relative viability (NCI-H1650; first compound 1 µM): 0.242
